For the assay, the target named is catalytic subunit of the cAMP-dependent protein kinase A (PKA-C) (Mus musculus, UniProt P05132). As to the kind of experiment: isothermal titration calorimetry. Type of assay: binding. Background: In ITC the heat of successive injections is recorded.

Structures are written as SMILES.

A word on the Kd: it is the concentration at which binding is half-saturated. The low end stands for higher affinity, the high end for lower affinity. Turning to `Nc1ncnc2c1ncn2[C@@H]1O[C@H](COP(=O)(O)O)[C@@H](O)[C@H]1O` [AMP], the Kd was ~250 µM.

(Values after PMC4775281 (Structure (London, England : 1993), 2016).)
